We go through 13 compounds from US9550772B2, “Azaindole derivatives as multi kinase inhibitors” (ORIBASE PHARMA, priority 2012, dated 2017).

pEC50: −log10 of the molar value. Read-outs that look alike come from different tables or passages of the source.

One assay has as its target T1, FGFR2 (Homo sapiens, UniProt P21802).
T1 construct: purchased Invitrogen
In words: In vitro kinase assay (Z'-LYTE, Invitrogen). Format: biochemical. The note with it: compound at 100 nM, ATP Km apparent, read-out: % of inhibition of the kinase compared to the control. On the procedure: (§1) The inhibitory activity of the compounds on 7 kinases (BRAF, EGFR (ErbB1), EGFR (ErbB1) T790M L858R, FGFR2, KDR (VEGFR2), PDGFRA (PDGFR alpha), SRC) was evaluated by Invitrogen using the Z′-LYTE® technology. Briefly, the Z′-LYTE® biochemical assay employs a fluorescence-based, coupled-enzyme format and is based on the differential sensitivity of phosphorylated and non-phosphorylated peptides to proteolytic cleavage. The peptide substrate is labeled with two fluorophores—one at each end—that make up a FRET pair. A ratiometric method, which calculates the ratio (the Emission Ratio) of donor emission to acceptor emission after excitation of the donor fluorophore at 400 nm, is used to quantitate reaction progress.
(§2) The compounds are screened in 1% DMSO (final) in the well. For 10 point titrations, 3-fold serial dilutions are conducted from the starting concentration. All Peptide/Kinase Mixtures are diluted to a 2× working concentration in the appropriate Kinase Buffer. All ATP Solutions are diluted to a 4× working concentration in Kinase Buffer (50 mM HEPES pH 7.5, 0.01% BRIJ-35, 10 mM MgCl2, 1 mM EGTA). ATP Km apparent is previously determined using a Z′-LYTE® assay.
(§3) Each compound was incubated at a concentration of 100 nM and the tables 21 to 27 summarize the results obtained showing the inhibitory power of a compound.

The target of a further assay is T2, EGFR (ErbB1) (Homo sapiens, UniProt P00533).
T2 construct: purchased Invitrogen
T2 sequence (P00533 25-1210): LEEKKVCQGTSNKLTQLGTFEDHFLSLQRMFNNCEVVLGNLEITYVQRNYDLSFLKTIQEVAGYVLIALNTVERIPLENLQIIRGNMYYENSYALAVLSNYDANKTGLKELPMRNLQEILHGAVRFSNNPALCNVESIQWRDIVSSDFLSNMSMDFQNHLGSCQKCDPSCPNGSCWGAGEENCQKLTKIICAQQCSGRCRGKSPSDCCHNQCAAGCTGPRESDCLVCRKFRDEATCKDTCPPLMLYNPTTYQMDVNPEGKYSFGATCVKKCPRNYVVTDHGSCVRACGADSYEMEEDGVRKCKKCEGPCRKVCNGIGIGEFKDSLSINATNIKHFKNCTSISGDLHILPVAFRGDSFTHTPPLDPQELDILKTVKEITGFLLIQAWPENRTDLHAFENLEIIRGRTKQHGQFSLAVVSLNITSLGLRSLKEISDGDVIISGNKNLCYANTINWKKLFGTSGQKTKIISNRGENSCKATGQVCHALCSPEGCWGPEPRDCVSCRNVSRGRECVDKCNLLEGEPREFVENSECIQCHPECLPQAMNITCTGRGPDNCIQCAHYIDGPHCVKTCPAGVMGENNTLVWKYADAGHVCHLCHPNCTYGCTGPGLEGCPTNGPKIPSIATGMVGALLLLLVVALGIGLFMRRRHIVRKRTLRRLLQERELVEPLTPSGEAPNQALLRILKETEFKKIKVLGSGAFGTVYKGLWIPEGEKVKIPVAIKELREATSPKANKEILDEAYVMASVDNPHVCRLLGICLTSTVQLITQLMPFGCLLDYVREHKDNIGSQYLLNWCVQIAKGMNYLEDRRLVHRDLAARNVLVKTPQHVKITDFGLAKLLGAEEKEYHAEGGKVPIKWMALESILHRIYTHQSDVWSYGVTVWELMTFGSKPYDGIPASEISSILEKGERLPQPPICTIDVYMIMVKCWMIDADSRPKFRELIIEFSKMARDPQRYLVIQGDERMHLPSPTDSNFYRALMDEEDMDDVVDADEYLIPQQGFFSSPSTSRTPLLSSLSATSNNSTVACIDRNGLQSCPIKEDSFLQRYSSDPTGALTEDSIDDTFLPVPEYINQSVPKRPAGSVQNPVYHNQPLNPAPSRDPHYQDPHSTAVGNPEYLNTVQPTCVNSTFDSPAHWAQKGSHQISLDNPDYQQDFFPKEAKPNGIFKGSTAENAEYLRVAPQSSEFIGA
Description: In vitro kinase assay (Z'-LYTE, Invitrogen). Particulars: compound at 100 nM, ATP Km apparent, read-out: % of inhibition of the kinase compared to the control. Format: biochemical. On the procedure: as §1, §2, §3

A further assay has as its target T3, BRAF (Homo sapiens, UniProt P15056).
T3 construct: purchased Invitrogen
In words: In vitro kinase assay (Z'-LYTE, Invitrogen). The note with it: compound at 100 nM, ATP Km apparent, read-out: % of inhibition of the kinase compared to the control. Format: biochemical. On the procedure: as §1, §2, §3

The next assay addresses T4, KDR (VEGFR2) (Homo sapiens, UniProt P35968).
T4 construct: purchased Invitrogen
In words: In vitro kinase assay (Z'-LYTE, Invitrogen). It counts as biochemical. The note with it: compound at 100 nM, ATP Km apparent, read-out: % of inhibition of the kinase compared to the control. On the procedure:
as §1, §2, §3

The test system of the next assay is HUVEC cells. Description: In vitro cell proliferation assay (MTT). It counts as cell-based. Particulars: Homo sapiens, 72 hr, read-out: EC50, anti-proliferative activity. On the procedure: (§4) Cancer cell lines (5×10^3 cells per well) or HUVEC (1×10^4 cells per well) or HRMEC (1×10^4 cells per well) were distributed in 96-well plates and incubating in duplicate with escalating concentrations (10 nM to 3 μM) of compounds for 72 hr. Cell proliferation was measured using MTT (3[4,5-dimethylthiazol-2-yl]-2,5-diphenyltetrazolium bromide). The EC50 values were calculated from sigmoidal dose-response curves utilizing Prism 5.0 from Graph-Pad Software (GraphPad Software, La Jolla, Calif., USA), with values normalized to those of DMSO-treated control wells (0%) and 1% SDS control wells (100%).

A further assay concerns HepG2 cell line. In words: In vitro cell proliferation assay (MTT). Format: cell-based. Particulars: Homo sapiens, HepG2, 72 hr, read-out: EC50, anti-proliferative activity. On the procedure:
as §4

In a further assay the target is T5, PDGFRA (PDGFR alpha) (Homo sapiens, UniProt P16234).
T5 construct: purchased Invitrogen
T5 sequence (P16234 24-1089): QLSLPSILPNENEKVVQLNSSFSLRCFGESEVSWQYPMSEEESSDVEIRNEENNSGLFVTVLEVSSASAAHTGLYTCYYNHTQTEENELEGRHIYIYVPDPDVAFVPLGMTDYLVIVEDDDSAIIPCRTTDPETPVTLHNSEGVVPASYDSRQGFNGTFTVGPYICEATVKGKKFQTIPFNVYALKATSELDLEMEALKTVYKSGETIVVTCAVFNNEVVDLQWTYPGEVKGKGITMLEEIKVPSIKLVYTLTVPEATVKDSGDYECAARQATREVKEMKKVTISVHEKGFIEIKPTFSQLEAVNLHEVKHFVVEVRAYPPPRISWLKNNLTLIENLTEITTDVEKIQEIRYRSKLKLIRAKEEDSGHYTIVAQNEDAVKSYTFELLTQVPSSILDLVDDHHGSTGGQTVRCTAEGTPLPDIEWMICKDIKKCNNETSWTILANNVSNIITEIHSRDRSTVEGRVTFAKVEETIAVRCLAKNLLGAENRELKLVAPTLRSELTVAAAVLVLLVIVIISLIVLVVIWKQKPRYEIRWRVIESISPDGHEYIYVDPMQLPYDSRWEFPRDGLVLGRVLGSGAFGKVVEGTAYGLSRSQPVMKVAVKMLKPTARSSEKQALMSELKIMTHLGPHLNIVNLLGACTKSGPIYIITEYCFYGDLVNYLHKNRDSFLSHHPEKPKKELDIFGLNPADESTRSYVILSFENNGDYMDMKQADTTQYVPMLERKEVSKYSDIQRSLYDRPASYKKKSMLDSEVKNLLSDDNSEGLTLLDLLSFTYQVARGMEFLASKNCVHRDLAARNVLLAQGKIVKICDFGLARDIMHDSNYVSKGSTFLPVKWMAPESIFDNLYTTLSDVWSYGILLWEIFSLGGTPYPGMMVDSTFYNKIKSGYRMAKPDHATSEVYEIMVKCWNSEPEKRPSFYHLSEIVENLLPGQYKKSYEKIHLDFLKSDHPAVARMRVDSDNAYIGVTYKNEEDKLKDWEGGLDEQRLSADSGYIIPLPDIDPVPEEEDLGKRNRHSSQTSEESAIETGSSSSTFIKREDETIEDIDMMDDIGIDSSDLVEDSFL
In words: In vitro kinase assay (Z'-LYTE, Invitrogen). It counts as biochemical. The note with it: compound at 100 nM, ATP Km apparent, read-out: % of inhibition of the kinase compared to the control. On the procedure: as §1, §2, §3

For another assay, the target named is T6, SRC (Homo sapiens, UniProt P12931).
T6 construct: purchased Invitrogen
T6 sequence (P12931 whole entry): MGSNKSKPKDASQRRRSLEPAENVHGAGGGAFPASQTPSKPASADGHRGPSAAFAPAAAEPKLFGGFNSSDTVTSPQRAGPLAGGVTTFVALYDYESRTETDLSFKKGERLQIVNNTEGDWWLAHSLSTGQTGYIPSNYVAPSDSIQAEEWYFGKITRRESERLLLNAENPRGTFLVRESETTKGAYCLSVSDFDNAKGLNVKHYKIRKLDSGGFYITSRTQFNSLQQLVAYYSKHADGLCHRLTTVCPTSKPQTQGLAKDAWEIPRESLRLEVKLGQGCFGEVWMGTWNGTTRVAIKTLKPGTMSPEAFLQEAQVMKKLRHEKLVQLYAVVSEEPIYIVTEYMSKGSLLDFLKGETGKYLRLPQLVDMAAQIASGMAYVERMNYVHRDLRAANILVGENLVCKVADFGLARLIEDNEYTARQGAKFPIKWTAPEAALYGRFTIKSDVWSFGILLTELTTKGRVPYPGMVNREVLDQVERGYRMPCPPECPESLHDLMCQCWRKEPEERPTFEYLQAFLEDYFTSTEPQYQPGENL
Description: In vitro kinase assay (Z'-LYTE, Invitrogen). Format: biochemical. Particulars: compound at 100 nM, ATP Km apparent, read-out: % of inhibition of the kinase compared to the control. How it is done:
as §1, §2, §3

For the next assay, the system named is MDA-MB-231 cell line. Description: In vitro cell proliferation assay (MTT). Format: cell-based. The note with it: Homo sapiens, MDA-MB-231, 72 hr, EC50 ≧ 1 μM, read-out: EC50, anti-proliferative activity. On the procedure:
as §4

The next assay concerns A549 cell line. Description: In vitro cell proliferation assay (MTT). It counts as cell-based. The note with it: Homo sapiens, A549, 72 h, EC50 ≧ 1 μM, read-out: EC50, anti-proliferative activity. On the procedure: as §4
The test system of a further assay is HeLa cell line. In words: In vitro cell proliferation assay (MTT). It counts as cell-based. Particulars: Homo sapiens, 72 hr, EC50 ≧ 1 μM, read-out: EC50, anti-proliferative activity. On the procedure: as §4

T1 sequence (P21802 22-821): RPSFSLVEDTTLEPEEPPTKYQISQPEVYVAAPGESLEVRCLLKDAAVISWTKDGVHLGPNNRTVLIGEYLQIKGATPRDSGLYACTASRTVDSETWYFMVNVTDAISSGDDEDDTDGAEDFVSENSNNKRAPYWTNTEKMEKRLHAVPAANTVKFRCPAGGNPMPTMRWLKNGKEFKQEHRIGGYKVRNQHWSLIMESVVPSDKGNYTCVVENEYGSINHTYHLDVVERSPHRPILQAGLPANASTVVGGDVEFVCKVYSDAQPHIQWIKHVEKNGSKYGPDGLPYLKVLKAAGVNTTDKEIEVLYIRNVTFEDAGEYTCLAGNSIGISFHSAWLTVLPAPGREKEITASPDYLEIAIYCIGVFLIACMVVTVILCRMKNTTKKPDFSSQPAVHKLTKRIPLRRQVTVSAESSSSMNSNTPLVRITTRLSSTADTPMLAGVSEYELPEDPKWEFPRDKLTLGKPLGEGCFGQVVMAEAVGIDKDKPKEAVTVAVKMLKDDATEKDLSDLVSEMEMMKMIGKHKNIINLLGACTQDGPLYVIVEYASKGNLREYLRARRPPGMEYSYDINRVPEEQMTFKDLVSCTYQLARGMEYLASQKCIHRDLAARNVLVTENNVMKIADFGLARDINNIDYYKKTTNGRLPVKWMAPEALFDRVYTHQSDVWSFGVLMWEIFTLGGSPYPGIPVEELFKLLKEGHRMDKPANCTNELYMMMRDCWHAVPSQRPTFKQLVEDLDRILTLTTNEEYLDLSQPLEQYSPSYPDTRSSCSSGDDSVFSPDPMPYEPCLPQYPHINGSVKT
T3 sequence (P15056 whole entry): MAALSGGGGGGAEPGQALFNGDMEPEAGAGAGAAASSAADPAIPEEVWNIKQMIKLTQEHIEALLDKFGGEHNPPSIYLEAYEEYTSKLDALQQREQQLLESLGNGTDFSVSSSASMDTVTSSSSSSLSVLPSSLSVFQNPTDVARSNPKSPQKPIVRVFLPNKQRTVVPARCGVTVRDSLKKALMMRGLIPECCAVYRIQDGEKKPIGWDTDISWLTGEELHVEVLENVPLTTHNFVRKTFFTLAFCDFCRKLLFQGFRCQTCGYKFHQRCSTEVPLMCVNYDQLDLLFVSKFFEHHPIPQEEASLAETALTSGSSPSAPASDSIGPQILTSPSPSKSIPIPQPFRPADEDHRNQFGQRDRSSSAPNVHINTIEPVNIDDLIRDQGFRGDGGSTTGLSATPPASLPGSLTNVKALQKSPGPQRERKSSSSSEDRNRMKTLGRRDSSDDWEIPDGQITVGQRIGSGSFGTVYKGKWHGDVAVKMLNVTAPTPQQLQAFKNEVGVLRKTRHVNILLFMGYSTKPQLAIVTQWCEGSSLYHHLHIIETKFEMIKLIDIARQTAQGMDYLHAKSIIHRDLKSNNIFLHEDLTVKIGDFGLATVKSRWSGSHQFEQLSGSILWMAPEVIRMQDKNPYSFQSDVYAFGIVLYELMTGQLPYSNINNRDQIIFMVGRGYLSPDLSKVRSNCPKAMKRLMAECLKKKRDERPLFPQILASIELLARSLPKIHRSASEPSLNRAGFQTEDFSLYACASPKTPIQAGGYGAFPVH

Take `COC(=O)c1cc2cc(CCc3cc(NC(=S)c4ccc(CN5CCN(C)CC5)cc4)ccc3C)cnc2[nH]1` [OR0969, 5-(2-{2-Methyl-5-[4-(4-methyl-piperazin-1-ylmethyl)-thiobenzoylamino]-phenyl}-ethyl)-1H-pyrrolo[2,3-b]pyridine-2-carboxylic acid methyl ester]: the inhibition at 0.1 µM on FGFR2 was no less than 50%; on EGFR (ErbB1) it was no less than 50%; on BRAF, less than 50%; at KDR (VEGFR2), no less than 50%. Also, the pEC50 in the assay on HUVEC cells (EC50 ≧ 1 μM) and in the assay on HepG2 cell line (EC50 ≧ 1 μM) was no more than 6.00 throughout.

Regarding `COC(=O)c1cc2cc(CCc3cccc(NC(=O)c4ccc5[nH]ccc5c4)c3)cnc2[nH]1` [OR0978, 5-(2-{3-[(1H-Indole-5-carbonyl)-amino]-phenyl}-ethyl)-1H-pyrrolo[2,3-b]pyridine-2-carboxylic acid methyl ester], the inhibition at 0.1 µM was less than 50% on FGFR2; less than 50% on EGFR (ErbB1); less than 50% at BRAF; no less than 50% on PDGFRA (PDGFR alpha); no less than 50% at KDR (VEGFR2); less than 50% on SRC. In addition, the pEC50 in the assay on HUVEC cells (EC50 ≧ 1 μM) and with HepG2 cell line (EC50 ≧ 1 μM) was no more than 6.00 each time.

`Cc1ccc(NC(=O)c2ccc(CN3CCN(C)CC3)c(C(F)(F)F)c2)cc1CCc1cnc2[nH]c(C(=O)O)cc2c1` [OR1054, 5-(2-{2-Methyl-5-[4-(4-methyl-piperazin-1-ylmethyl)-3-trifluoromethyl-benzoylamino]-phenyl}-ethyl)-1H-pyrrolo[2,3-b]pyridine-2-carboxylic acid]: the inhibition at 0.1 µM on FGFR2 is no less than 50%; on EGFR (ErbB1) it was no less than 50%; on BRAF, less than 50%; at KDR (VEGFR2) it was no less than 50%.

For the compound `CCN(CC)CCNC(=O)c1c(C)[nH]c(/C=C2\C(=O)Nc3ccc(F)cc32)c1C` [Sunitinib, reference compound], the pEC50 in the assay on HUVEC cells (EC50 ≧ 1 μM) is no more than 6.00.

For `COC(=O)c1cc2cc(CCc3cc(NC(=O)Nc4cccc(C(F)(F)F)c4)ccc3C)cnc2[nH]1` [OR0918, 5-(2-{2-Methyl-5-[3-(3-trifluoromethyl-phenyl)-ureido]-phenyl}-ethyl)-1H-pyrrolo[2,3-b]pyridine-2-carboxylic acid methyl ester], the inhibition at 0.1 µM on FGFR2 was less than 50%; at EGFR (ErbB1), less than 50%; on BRAF it was less than 50%; at PDGFRA (PDGFR alpha), no less than 50%; on KDR (VEGFR2) it was less than 50%; on SRC it was less than 50%. Moreover, the pEC50 in the assay with HUVEC cells (EC50 ≧ 1 μM) and with HepG2 cell line (EC50 ≧ 1 μM) was no more than 6.00 each time.

Take `COC(=O)c1cc2cc(CCc3cccc(NC(=O)c4ccc(CN5CCC(N(C)C)C5)c(C(F)(F)F)c4)c3)cnc2[nH]1` (stereo not shown) [OR0922, 5-(2-{5-[4-(3-Dimethylamino-pyrrolidin-1-ylmethyl)-3-trifluoromethyl-benzoylamino]-phenyl}-ethyl)-1H-pyrrolo[2,3-b]pyridine-2-carboxylic acid methyl ester]: the inhibition at 0.1 µM at FGFR2 is no less than 50%; at EGFR (ErbB1), no less than 50%; on BRAF, less than 50%; on KDR (VEGFR2) it was no less than 50%. Further, the pEC50 in the assay on HUVEC cells (100 nM < EC50 < 1 μM) was 6.00 to 7.00; in the assay on HepG2 cell line (EC50 ≧ 1 μM), no more than 6.00.

In the case of `CC(=O)c1cc2cc(CCc3cc(NS(=O)(=O)c4cccc(C(F)(F)F)c4)ccc3C)cnc2[nH]1` [OR0967, N-{3-[2-(2-Acetyl-1H-pyrrolo[2,3-b]pyridin-5-yl)-ethyl]-4-methyl-phenyl}-3-trifluoromethyl-benzenesulfonamide], the inhibition at 0.1 µM on FGFR2, on EGFR (ErbB1), at BRAF, on PDGFRA (PDGFR alpha), on KDR (VEGFR2) and on SRC was less than 50% throughout. Moreover, the pEC50 in the assay on HUVEC cells (EC50 ≧ 1 μM) and in the assay with HepG2 cell line (EC50 ≧ 1 μM) was no more than 6.00 throughout.

With `COC(=O)c1cc2cc(CCc3cccc(NC(=O)c4cncc(C(F)(F)F)c4)c3)cnc2[nH]1` [OR0981, 5-(2-{3-[(5-Trifluoromethyl-pyridine-3-carbonyl)-amino]-phenyl}-ethyl)-1H-pyrrolo[2,3-b]pyridine-2-carboxylic acid methyl ester], the inhibition at 0.1 µM on FGFR2 is less than 50%; at EGFR (ErbB1), less than 50%; at BRAF it was no less than 50%; at PDGFRA (PDGFR alpha) it was no less than 50%; at KDR (VEGFR2) it was no less than 50%; at SRC it was no less than 50%. The pEC50 in the assay with HUVEC cells (EC50 ≧ 1 μM) and in the assay on HepG2 cell line (EC50 ≧ 1 μM) was no more than 6.00 throughout.

`COC(=O)c1cc2cc(CCc3cccc(NC(=O)c4cc[nH]c4)c3)cnc2[nH]1` [OR0976, 5-(2-{3-[(1H-Pyrrole-3-carbonyl)-amino]-phenyl}-ethyl)-1H-pyrrolo[2,3-b]pyridine-2-carboxylic acid methyl ester]: the inhibition at 0.1 µM at FGFR2, at EGFR (ErbB1), at BRAF, at PDGFRA (PDGFR alpha), at KDR (VEGFR2) and on SRC was less than 50% each time. The pEC50 in the assay with HUVEC cells (EC50 ≧ 1 μM) and in the assay with HepG2 cell line (EC50 ≧ 1 μM) was no more than 6.00 in each case.

As for `COC(=O)c1cc2cc(CCc3cc(NC(=O)c4ccccc4OC)ccc3Cl)cnc2[nH]1` [OR1064, 5-{2-[2-Chloro-5-(2-methoxy-benzoylamino)-phenyl]-ethyl}-1H-pyrrolo[2,3-b]pyridine-2-carboxylic acid methyl ester], the inhibition at 0.1 µM was less than 50% on FGFR2; less than 50% on EGFR (ErbB1); less than 50% at BRAF; no less than 50% on PDGFRA (PDGFR alpha); less than 50% at KDR (VEGFR2); less than 50% on SRC.

With `COC(=O)c1cc2cc(CCc3cc(NC(=O)c4ccc(CN5CCN(C)CC5)c(F)c4)ccc3C)cnc2[nH]1` [OR0920, 5-(2-{5-[3-Fluoro-4-(4-methyl-piperazin-1-ylmethyl)-benzoylamino]-2-methyl-phenyl}-ethyl)-1H-pyrrolo[2,3-b]pyridine-2-carboxylic acid methyl ester], the inhibition at 0.1 µM at FGFR2, at EGFR (ErbB1), at BRAF and on KDR (VEGFR2) was no less than 50% throughout. In addition, the pEC50 with HUVEC cells (EC50 ≧ 1 μM) was no more than 6.00; in the assay with HepG2 cell line (100 nM < EC50 < 1 μM), 6.00 to 7.00.

`COC(=O)c1cc2cc(CCc3cccc(NC(=O)c4ccc5[nH]nnc5c4)c3)cnc2[nH]1` [OR0977, 5-(2-{3-[(1H-Benzotriazole-5-carbonyl)-amino]-phenyl}-ethyl)-1H-pyrrolo[2,3-b]pyridine-2-carboxylic acid methyl ester]: the inhibition at 0.1 µM on FGFR2, on EGFR (ErbB1), at BRAF, at PDGFRA (PDGFR alpha), on KDR (VEGFR2) and on SRC was less than 50% throughout. Also, the pEC50 with HUVEC cells (EC50 ≧ 1 μM) and in the assay on HepG2 cell line (EC50 ≧ 1 μM) was no more than 6.00 in each case.

As to `COC(=O)c1cc2cc(C=Cc3cccc(C(=O)Nc4cccc(C(F)(F)F)c4)c3)cnc2[nH]1` [OR1046, 5-{2-[3-(3-Trifluoromethyl-phenylcarbamoyl)-phenyl]-vinyl}-1H-pyrrolo[2,3-b]pyridine-2-carboxylic acid methyl ester], the pEC50 with HUVEC cells (EC50 ≧ 1 μM), in the assay on MDA-MB-231 cell line, in the assay on A549 cell line, in the assay on HeLa cell line and in the assay on HepG2 cell line (EC50 ≧ 1 μM) was no more than 6.00 throughout.

Usually inhibition stands for how much of the control response was suppressed. For orientation: pEC50 means −log10 of the EC50, conventionally taken in molar units.
